Results published in patent publication US7244727B2, “Fused bicyclic nitrogen-containing heterocycles” (Japan Tobacco Inc., priority 2002, dated 2007).
pIC50: −log10 of the molar value.

Target: T1, human DGAT1 (Homo sapiens, UniProt O75907)
T1 construct: made in house; host or cells: insect cells (sf9, sf21 or High Five) infected with baculovirus; total cell membranes
T1 sequence (O75907 1-488): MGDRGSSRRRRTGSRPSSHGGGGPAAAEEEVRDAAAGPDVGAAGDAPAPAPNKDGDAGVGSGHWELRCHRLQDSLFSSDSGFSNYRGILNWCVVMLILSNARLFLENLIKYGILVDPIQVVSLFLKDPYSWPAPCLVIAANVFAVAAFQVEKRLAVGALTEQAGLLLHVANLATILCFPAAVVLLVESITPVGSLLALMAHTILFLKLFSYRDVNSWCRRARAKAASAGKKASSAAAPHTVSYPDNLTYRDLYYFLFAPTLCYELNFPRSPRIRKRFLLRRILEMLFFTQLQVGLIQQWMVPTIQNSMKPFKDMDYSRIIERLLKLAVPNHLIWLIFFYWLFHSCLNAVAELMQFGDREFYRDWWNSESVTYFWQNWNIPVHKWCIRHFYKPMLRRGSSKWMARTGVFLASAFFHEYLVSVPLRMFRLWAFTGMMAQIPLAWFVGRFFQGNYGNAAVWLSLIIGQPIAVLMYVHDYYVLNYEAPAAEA
Assay: DGAT Scintillation Proximity Assay (SPA) with membranes of insect cells expressing human flagtag DGAT1
Format: biochemical
Conditions: read-out: hDGAT1 IC50
Description: In such an assay human DGAT1 is cloned from a human liver cDNA library. PCR is used to add a restriction site and flag epitope at the most 5′ end and a restriction site at the 3′ end of the sequence. Thereafter, human flagtag (FT) DGAT1 baculovirus may be generated using a Bac-to-Bac Baculovirus Expression System® (Invitrogen). Insect cells (e.g., sf9, sf2 1, or High Five) are infected for 24 to 72 h and collected by centrifugation. Cell pellets are resuspended in homogenization buffer and lysed using a homogenization device, such as a Microfluidizer. Total cell membranes are collected by ultracentrifugation at 45,000 rpm for 1 h.
A small aliquot (0.2 μg/well) of membrane is incubated with 10 μM compound or mercuric chloride (as positive control for inhibition) in the presence of enzyme substrate, dioleoyl glycerol (200 μM) in 384 well plates, final volume 50 gL per well. […] The reaction is stopped by adding Wheat Germ Agglutinin (WGA) SPA beads (0.2 mg) in mercuric chloride. Cell membranes are allowed to couple to the beads overnight. The signal can be measured using, for example, a Chemiluminescence Image Plate Reader (CLIPR) or TopCount device.

Row | pIC50 | SMILES
1 | < 7.00 | CC1(C)Oc2ncnc(N)c2N=C1c1ccc(C2CCNCC2)cc1 [Example 3-2]
2 | < 7.00 | CC1(C)Oc2ncnc(N)c2N=C1c1ccc(N2CCC(Cc3ccccc3)CC2)cc1 [Example 4-2]
3 | 7.00 to 8.00 | Cc1nc(N)c2c(n1)OC(C)(C)C(c1ccc([C@H]3CC[C@H](CC(=O)O)CC3)cc1)C2 (stereo partly drawn) [Example 7-2]
4 | < 7.00 | Cc1ccc(C2=Cc3c(N)ncnc3OC2(C)C)cc1 [Example 7-3]
5 | 7.00 to 8.00 | CC1(C)Oc2ncnc(N)c2N=C1c1ccc2c(c1)COC21CCC(CC(=O)O)CC1 (stereo not drawn) [Example 8-2]
6 | 7.00 to 8.00 | Cc1nc(N)c2c(n1)OC(C)(C)C(c1ccc3c(c1)CCC31CCC([C@@H](C)C(=O)O)CC1)=N2 (stereo partly drawn) [Example 8-4]
7 | 7.00 to 8.00 | Cc1nc(N)c2c(n1)OC(C)(C)C(c1ccc3c(c1)CC[C@]31CC[C@@H](CC(=O)O)CC1)=N2 [Example 8-6]
8 | > 8.00 | CC1(C)Oc2ncnc(N)c2N=C1c1ccc2c(c1)CCC[C@]21CC[C@@H](CC(=O)O)CC1 [Example 8]
9 | 7.00 to 8.00 | Cc1nc(N)c2c(n1)OC(C)(C)C(c1ccc(C3CCC([C@H](C)C(=O)O)CC3)cc1)=N2 (stereo partly drawn) [Example 9-2]
10 | 7.00 to 8.00 | CC1(C)Oc2ncnc(N)c2N=C1c1ccc2c(c1)CC[C@@H]1C/C(=C\C(=O)O)CC[C@H]21 [Example 10-2]
11 | > 8.00 | CC1(C)Oc2ncnc(N)c2N=C1c1ccc(C2CCC(C(C)(C)C(=O)O)CC2)cc1 (stereo not drawn) [Example 10-3]
12 | 7.00 to 8.00 | CC1(C)Oc2ncnc(N)c2N=C1c1ccc(C2CCC3(CC2)CC3C(=O)O)cc1 (stereo not drawn) [Example 10-4]
13 | 7.00 to 8.00 | CC1(C)Oc2ncnc(N)c2N=C1c1ccc(C2CCC(C3(C(=O)O)CC3)CC2)cc1 (stereo not drawn) [Example 10-5]
14 | 7.00 to 8.00 | CC1(C)Oc2ncnc(N)c2N=C1c1ccc(C2CCC(C(O)C(=O)O)CC2)cc1 (stereo not drawn) [Example 10-6]
15 | 7.00 to 8.00 | CC1(C)Oc2ncnc(N)c2N=C1c1ccc(C2CCC(c3cc(O)[nH]n3)CC2)cc1 (stereo not drawn) [Example 10-7]
16 | 7.00 to 8.00 | CC1(C)Oc2ncnc(N)c2N=C1c1ccc(C2CCC(c3cc(O)no3)CC2)cc1 (stereo not drawn) [Example 10-8]
17 | 7.00 to 8.00 | CC1(C)Oc2ncnc(N)c2N=C1c1ccc(C2CCC(c3cc(O)on3)CC2)cc1 (stereo not drawn) [Example 10-9]
18 | > 8.00 | CC1(C)Oc2ncnc(N)c2N=C1c1ccc2c(c1)CCC21CCC(CC(=O)O)CC1 (stereo not drawn) [Example 10-10]
19 | 7.00 to 8.00 | CC1(C)Oc2ncnc(N)c2N=C1c1ccc2c(c1)C(C)(C)CCC21CCC(CC(=O)O)CC1 (stereo not drawn) [Example 10-11]
20 | 7.00 to 8.00 | CC1(C)Oc2ncnc(N)c2N=C1c1ccc2c(c1)CCCC21CCC(C2(C(=O)O)CC2)CC1 (stereo not drawn) [Example 10-12]

Row | pIC50 | SMILES
21 | > 8.00 | CC1(C)Oc2ncnc(N)c2N=C1c1ccc2c(c1)CCC21CCC(C(C)(C)C(=O)O)CC1 (stereo not drawn) [Example 10-13]
22 | 7.00 to 8.00 | Cc1nc(N)c2c(n1)OC(C)(C)C(c1ccc(C3CCC(C(C)(C)C(=O)O)CC3)cc1)=N2 (stereo not drawn) [Example 10-14]
23 | > 8.00 | CC(C(=O)O)C1CCC(c2ccc(C3=Nc4c(N)nc(C(F)(F)F)nc4OC3(C)C)cc2)CC1 (stereo not drawn) [Example 10-15]
24 | 7.00 to 8.00 | Cc1nc(N)c2c(n1)OC(C)(C)C(c1ccc3c(c1)CCC31CCC(C(C)(C)C(=O)O)CC1)=N2 (stereo not drawn) [Example 10-16]
25 | > 8.00 | CC(C(=O)O)C1CCC2(CCc3cc(C4=Nc5c(N)nc(C(F)(F)F)nc5OC4(C)C)ccc32)CC1 (stereo not drawn) [Example 10-17]
26 | 7.00 to 8.00 | CCc1nc(N)c2c(n1)OC(C)(C)C(c1ccc(C3CCC(CC(=O)O)CC3)cc1)=N2 (stereo not drawn) [Example 10-18]
27 | 7.00 to 8.00 | CC1(C)Oc2nc(C(F)(F)F)nc(N)c2N=C1c1ccc(C2CCC(C3(C(=O)O)CC3)CC2)cc1 (stereo not drawn) [Example 10-19]
28 | 7.00 to 8.00 | CC1(C)Oc2nc(C(F)(F)F)nc(N)c2N=C1c1ccc(C2CCC(C(C)(C)C(=O)O)CC2)cc1 (stereo not drawn) [Example 10-20]
29 | 7.00 to 8.00 | Cc1nc(N)c2c(n1)OC(C)(C)C(c1ccc(C3CCC(C4(C(=O)O)CC4)CC3)cc1)=N2 (stereo not drawn) [Example 10-21]
30 | 7.00 to 8.00 | Cc1nc(N)c2c(n1)OC(C)(C)C(c1ccc([C@H]3CC[C@H](CC(=O)O)CC3)c(C)c1)=N2 [Example 10-22]
31 | 7.00 to 8.00 | CCc1nc(N)c2c(n1)OC(C)(C)C(c1ccc([C@H]3CC[C@H](CC(=O)O)CC3)cc1)N2 (stereo partly drawn) [Example 10-23]
32 | 7.00 to 8.00 | Cc1nc(N)c2c(n1)OC(C)(C)C(c1ccc3c(c1)CCC31CCC(C3(C(=O)O)CC3)CC1)=N2 (stereo not drawn) [Example 10-24]
33 | 7.00 to 8.00 | CC1(C)Oc2nc(C(F)(F)F)nc(N)c2N=C1c1ccc2c(c1)CCC21CCC(C2(C(=O)O)CC2)CC1 (stereo not drawn) [Example 10-25]
34 | 7.00 to 8.00 | CC1(C)Oc2nc(C(F)(F)F)nc(N)c2N=C1c1ccc2c(c1)CCC21CCC(C(C)(C)C(=O)O)CC1 (stereo not drawn) [Example 10-26]
35 | 7.00 to 8.00 | CCC(C(=O)O)C1CCC(c2ccc(C3=Nc4c(N)nc(C)nc4OC3(C)C)cc2)CC1 (stereo not drawn) [Example 10-27]
36 | > 8.00 | CCC(C(=O)O)C1CCC(c2ccc(C3=Nc4c(N)nc(C(F)(F)F)nc4OC3(C)C)cc2)CC1 (stereo not drawn) [Example 10-28]
37 | 7.00 to 8.00 | Cc1nc(N)c2c(n1)OC(C)(C)C(c1ccc(CC3CCC(C(=O)O)CC3)cc1)=N2 (stereo not drawn) [Example 10-29]
38 | 7.00 to 8.00 | Cc1nc(N)c2c(n1)OC(C)(C)C(c1ccc([C@H]3CC[C@H](C(C)C(=O)O)CC3)cc1)=C2 (stereo partly drawn) [Example 10-30]
39 | 7.00 to 8.00 | CC(C(=O)O)[C@H]1CC[C@H](c2ccc(C3=Cc4c(N)ncnc4OC3(C)C)cc2)CC1 (stereo partly drawn) [Example 10-31]
40 | > 8.00 | CCC(C(=O)O)C1CCC(c2ccc(C3=Nc4c(N)ncnc4OC3(C)C)cc2)CC1 (stereo not drawn) [Example 10]

Test system: not given
Assay: not given
Conditions: not given

Row | melting point | SMILES
41 | > 200 °C | Nc1ncnc2c1N=C(c1ccc(Br)cc1)CO2
42 | 222 to 224 °C | CC1Oc2ncnc(N)c2N=C1c1ccc(Br)cc1 (stereo not drawn)
43 | > 220 °C | Cc1nc(N)c2c(n1)OCC(c1ccc(Br)cc1)=N2
44 | > 200 °C | Nc1ncnc2c1NC(c1ccc(Br)cc1)CO2 (stereo not drawn)
45 | 201 to 203 °C | CC1(C)Oc2ncnc(N)c2N=C1c1ccc(Br)cc1
46 | > 250 °C | Cc1nc(N)c2c(n1)OC(C)(C)C(c1ccc([C@H]3CC[C@H](CC(=O)O)CC3)cc1)=N2
47 | > 220 °C | CC1(C)Oc2ncnc(N)c2NC1c1ccc(Br)cc1 (stereo not drawn)
48 | 210 to 211 °C | CC1(C)Oc2ncnc(N)c2N=C1c1ccc(Cl)cc1
49 | 161 to 162 °C | Cc1ccc(C2=Nc3c(N)ncnc3OC2(C)C)cc1
50 | 189 to 190 °C | CC1(C)Oc2ncnc(N)c2N=C1c1ccc(F)cc1
51 | 186 to 187 °C | CC1(C)Oc2ncnc(N)c2N=C1c1ccc(C2CCCCC2)cc1
52 | 224 to 226 °C | CC1(C)Oc2ncnc(N)c2N=C1c1ccc([C@H]2CC[C@H](CC(N)=O)CC2)cc1
53 | > 250 °C | CC1(C)Oc2ncnc(N)c2N=C1c1ccc([C@H]2CC[C@H](C(=O)O)CC2)cc1
54 | > 250 °C | CC1(C)Oc2ncnc(N)c2N=C1c1ccc([C@H]2CC[C@H](CS(N)(=O)=O)CC2)cc1
55 | 183 to 184 °C | COc1ccc(C2=Nc3c(N)ncnc3OC2(C)C)cc1
56 | 245 to 246 °C | CC1(C)Oc2ncnc(N)c2N=C1c1ccc(O)cc1

Row | melting point | SMILES
57 | 218 to 219 °C | CC1(C)Oc2ncnc(N)c2N=C1c1ccc(-c2ccccc2)cc1
58 | > 240 °C | CC1(C)Oc2ncnc(N)c2N=C1c1ccc(C2CCC(=O)CC2)cc1
59 | 185 to 186 °C | CCCc1ccc(C2=Nc3c(N)ncnc3OC2(C)C)cc1
60 | 220 °C | CC1(C)Oc2ncnc(N)c2N=C1c1ccc(C(C)(C)C)cc1
61 | 135 to 136 °C | CCc1ccc(C2=Nc3c(N)ncnc3OC2(C)C)cc1
62 | 175 to 179 °C | CC(C)c1ccc(C2=Nc3c(N)ncnc3OC2(C)C)cc1
63 | 157 to 160 °C | CCCCc1ccc(C2=Nc3c(N)ncnc3OC2(C)C)cc1
64 | > 250 °C | CC1(C)Oc2ncnc(N)c2N=C1c1ccc([C@H]2CC[C@H](CCC(=O)O)CC2)cc1
65 | 226 to 227 °C | CC1(C)Oc2ncnc(N)c2N=C1c1ccc(C2CCC(F)(F)CC2)cc1
66 | 246 to 248 °C | CC1(C)Oc2ncnc(N)c2N=C1c1ccc(C2CCC(O)CC2)cc1 (stereo not drawn)
67 | > 270 °C | CC1(C)Oc2ncnc(N)c2N=C1c1ccc(-c2ccc(CC(=O)O)cc2)cc1
68 | > 250 °C | CC1(C)Oc2ncnc(N)c2N=C1c1ccc(C(C)(C)C(=O)O)cc1
69 | > 250 °C | CC1(C)Oc2ncnc(N)c2N=C1c1ccc([C@H]2CC[C@H](Cc3nn[nH]n3)CC2)cc1
70 | 189 to 190 °C | CC1(C)Oc2ncnc(N)c2N=C1c1ccccc1
71 | 191 to 193 °C | CC1(C)Oc2ncnc(N)c2N=C1c1ccc(N2CCCCC2)cc1
72 | 214 to 219 °C | CC1(C)Oc2ncnc(N)c2N=C1c1ccc(N2CCOCC2)cc1
